In patent US20160287536A1, “Composition” (THE UNIVERSITY OF NOTTINGHAM, priority 2013, published 2016) one finds Kd data, which are given here for one compound.

Read-outs that look alike come from different tables or passages of the source.

The target of assay [1] is α2-adrenoceptor. The conditions noted are these: porcine vessels; cited from earlier work.
In assay [2] the target is α2-adrenoceptor. Kind of assay: Saturation radioligand binding of [^3H]-RX821002 to sheep anorectal tissue membranes. The procedure:
Fresh sheep anorectal tissues were dissected from whole buttock from sheep within four hours of slaughter. The buttocks were delivered in a dry bag and stored at 4° C. until dissected. The tissues used in this experiment included rectal smooth muscle (RSM), rectal mucosa (RM), anal mucosa (AM), internal anal sphincter (IAS), sheep rectal artery (SRA), sheep rectal vein (SRV), and the terminal branches of rectal vessels (TB). The dissected tissues were kept at −20° C. until used. Prior to starting an experiment, the tissue was removed from the freezer and allowed to defrost on ice. […] Non-specific binding was determined using an excessive amount of unlabelled specific receptor ligand. […] Three ml of scintillation fluid (PerkinElmer, UK) was subsequently added into each vial, and left at least 8 hours (preferably overnight) before processing for radioactivity measurement. The amount of radioactivity bound to the filters was measured using a liquid scintillation analyser (Tri-Carb 2100TR, PerkinElmer, UK). The radioactivity was reported as disintegrations per minute (dpm). […] Specific binding of the radioligand to the membranes was calculated by subtracting the non-specific binding from the total binding. Receptor density (Bmax) and ligand dissociation constant (Kd) were then calculated using the specific saturation binding curve of each experiment.

Regarding `COC1(C2=NCCN2)COc2ccccc2O1` (stereo not drawn) [[^3H]-RX821002, 2-(2-methoxy-1,4-benzodioxan-2-yl)-2-imidazoline], the Kd (as a rule, a measure of binding affinity in units of concentration) was 1.3 to 2.2 nM at α2-adrenoceptor [1]; 1.42 nM on α2-adrenoceptor [2] (sheep rectal arteries, read-out: Kd of radioligand for α2-adrenoceptor); about 0.3 nM on α2-adrenoceptor [2] (sheep rectal vein and terminal branches of sheep rectal vessels, read-out: Kd of α2-adrenoceptor).
